Assay type in all cases: cell-based
For one assay, the system named is TDP-43 splicing function. Nature of the assay: qRT-PCR of TDP-43 sentinel transcripts (STMN2, ELAVL3, PFKP) in MG-132 challenged human motor neurons. More on the design: effect of stressor on splicing changes associated with TDP-43 loss of function (qPCR): dose or concentration left out as unconfirmed. To be noted: human motor neurons, relative to unstressed. On the procedure: (§1) Cell culture and differentiation of iPS Cells into motor neurons. Pluripotent stem cells were grown with mTeSR Plus medium on tissue culture dishes coated with Matrigel, and maintained in 5% CO2 incubators at 37° C. Stem cells were passaged as small aggregates of cells after 1 mM EDTA treatment. […] was added to the cultures for 16-24 h after dissociation to prevent cell death. The iP11NA iPS cell line was acquired from ALSTEM. This cell line was generated from pre-made footprint-free human iPS cells with DOX inducible Ngn2 that has been stably integrated into the human AAVS1 “Safe Harbor” site, and provides a convenient means to differentiate human iPS cells into neurons rapidly and efficiently. Motor neuron differentiation was achieved using a modified 5-day strategy.
(§2) This approach relies on neural induction through small molecule inhibition of SMAD signaling, accelerated neural differentiation through forced Ngn2 expression, and motor neuron patterning through the activation of retinoic acid and Sonic Hedgehog signaling pathways. In brief, pluripotent stem cells were dissociated to single cells using accutase and plated at a density of 80,000 cells per cm^2 on Matrigel-coated culture plates with mTeSR Plus medium supplemented with ROCK inhibitor (10 μM Y-27632, ATCC). When cells reached 50% confluency, medium was changed to differentiation medium BrainPhys medium supplemented with N2-A, SM1, […]. This time point was defined as day 0 (d0) of motor neuron differentiation. Treatment with small molecules was carried out as follows: 2 μg/mL Doxycyline, 10 μM SB431542, 100 nM LDN-193189, […] and 1 μM Smoothend agonist and 10 uM Edu. The full list of materials and their descriptions is included below in Table 5.
Total RNA was isolated from d14 motor neurons for qRT-PCR assays using TaqMan™ Fast Advanced Cells-to-CT™ Kit according to manufacturer's instructions. 7500 neurons per well of 96-well culture were routinely used for processing. qRT-PCR was then performed using multiplex assays from IDT using PrimeTime™ Gene Expression Master Mix (IDT) on a QuantStudio6Pro system. Quantitative levels for all genes assayed were normalized using GAPDH expression. […] Primers and probes used in this study are in Table 5.
To this end, we first examined whether proteasome inhibition, which triggers TDP-43 nuclear depletion, also leads to splicing defects associated with TDP-43 loss-of function. For comparison, we also treated human motor neurons with puromycin, which recruits TDP-43 to stress granules in the cytoplasm. We chose to analyze several transcripts that have relevant connections to ALS biology including STMN26,12, PFKP19, and ELAVL320,21. We used quantitative reverse transcription-polymerase chain reaction (qRT-PCR) to validate that in MG-132-treated motor neurons these transcripts were altered like in ALS patients.
Using this method, we next obtained RNA from independent motor neuron biological replicates after proteasome inhibition and Compound 183 treatment to determined by qRT-PCR the relative abundance of these transcripts. […] A dose-responsive effect was further tested for Compound 183 using qRT-PCR in this model. […] Collectively, the data support the notion that Compound 183 promotes TDP-43 nuclear function under proteotoxic stress.
In general terms: Real-time PCR tracks product formation cycle by cycle.

The subject of assay [1] is TDP-43 nuclear localization. Nature of the assay: TDP-43 localization analysis by immunofluorescence in MG-132 challenged iP11NA human motor neurons. The following applies: 1 μM MG-132 for 20 hours, human motor neurons, vs unstressed. How it is done:
as §1
as §2, with “The full list of materials and their descriptions is included below in Table 5.” left out
A dose-responsive effect was further tested for Compound 183 using quantitative imaging analysis on the CellInsight™ CX7 High Content Analysis Platform. By comparing the intensity of TDP-43 staining in the nucleus and cytoplasm of human motor neurons, we determined Compound 183 could maintain nuclear TDP-43 from 370 nM-10 μM in the proteasome challenged motor neurons (see FIG. 2).

A further assay concerns insoluble TDP-43. Nature of the assay: Cell fractionation and immunoblot of TDP-43 in MG-132 challenged human motor neurons. The following applies: MG-132 1 μM, vs unstressed. How it is done: Cell culture and differentiation of iPS Cells into motor neurons. Pluripotent stem cells were grown with mTeSR Plus medium on tissue culture dishes coated with Matrigel, and maintained in 5% CO2 incubators at 37° C. Stem cells were passaged as small aggregates of cells after 1 mM EDTA treatment. […] was added to the cultures for 16-24 h after dissociation to prevent cell death. The iP11NA iPS cell line was acquired from ALSTEM. This cell line was generated from pre-made footprint-free human iPS cells with DOX inducible Ngn2 that has been stably integrated into the human AAVS1 “Safe Harbor” site, and provides a convenient means to differentiate human iPS cells into neurons rapidly and efficiently. Motor neuron differentiation was achieved using a modified 5-day strategy. […]
For analysis of TDP-43 cellular distribution, d14 motor neurons were lysed with Thermo Subcellular Protein Fractionation Kit for cultured cells and processed according to the manufacturer's instructions. […] Fluorescent secondary antibodies were used for band detection and the Kaleidoscope precision plus protein ladder for size estimation. iBright FL1500 imaging system and software were used to quantitate protein band signal. […]

Another assay relates to TDP-43 aggregation. Nature of the assay: TDP-43 aggregation assay in SY5Y TDP-43WT cells (high content imaging). To be noted: Homo sapiens, tetracycline induction 24 hrs, 1 hour compound pre-treatment, sodium arsenite 23 hrs, 8-point dose curve, percentage of cells with TDP-43 aggregates, read-out: IC50, Inhibition of TDP-43 Aggregation. An outline of the steps:
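Tetracycline-inducible eGFP-tagged wild-type human TDP-43 in SH-SY5Y cells, induced 24 h ([…]), compound pre-treated 1 h, then sodium arsenite […] for 23 h. Fixed cells imaged; percentage of DAPI-counted cells with aggregates gives IC50 from 8-point curves.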

A further assay has as its system tau stress granules. Nature of the assay: SY5Y-tT1 tau arsenite assay (tau stress granules per cell). The following applies: SY5Y-tT1 cells, 2 hours compound, 90 minutes arsenite, 50% reduction of granules per cell, read-out: IC50, Inhibitor Activity of Tau Stress Granules. An outline of the steps: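 SY5Y-tT1 cells were tetracycline-induced for 48 h, pretreated 2 h with serially diluted compounds (PERK inhibitor GSK2606414 as control), then exposed to arsenite for 90 min at 37° C. After fixation and Hoechst staining, tau stress granules per cell were imaged; IC50 is the concentration halving granules per cell.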

Where a SMILES comes first, the peptide text is derived from it. The star is where a group is joined. Cbz = O=C(OCc1ccccc1)*

Regarding `COc1ccc(C[C@H](N)C(=O)N[C@H]2[C@@H](O)[C@H](n3cnc4c(N(C)C)ncnc43)O[C@@H]2CO)cc1` [puromycin, reference compound], the “effect of stressor on splicing changes associated with TDP-43 loss of function (qPCR)” value with TDP-43 splicing function was “failed to induce transcription changes consistent with TDP-43 loss of function”.

Regarding `CC(C)C[C@@H](C=O)NC(=O)[C@H](CC(C)C)NC(=O)[C@H](CC(C)C)NC(=O)OCc1ccccc1` [MG-132, reference compound] (Cbz-Leu-Leu-Leu-aldehyde), the “effect of stressor on nuclear TDP-43 staining (immunofluorescence)” value in assay [1] was “induced a loss of nuclear TDP-43 staining”. In the assay with TDP-43 splicing function (MG-132 1 μM), the “effect of stressor on cryptic splicing of STMN2, ELAVL3, PFKP (qPCR)” value was “strong induction of cryptic splicing”; the “effect of stressor on normal transcript levels (qPCR)” value was “decreased levels for normal STMN2 as well as the cryptic exon-disrupted splice junctions in PFKP and ELAVL3”. Further, in the assay with insoluble TDP-43, the “effect of stressor on TDP-43 distribution between fractions (immunoblot)” value was “significant change in TDP-43 distribution from the soluble, nuclear compartment to the insoluble fraction”.

As for `CCN1CCC(c2ccc(-c3cc(C)c(C(=O)N4CC[C@H](N)C4)s3)cc2)CC1` [Compound 176, (S)-(3-aminopyrrolidin-1-yl)(5-(4-(1-ethylpiperidin-4-yl)phenyl)-3-methylthiophen-2-yl)methanone], the values for the half-maximal inhibitory concentration (IC50) with TDP-43 aggregation and with tau stress granules were below 500 nM and 500 to 1000 nM, respectively.

What is called IC50 is the point on the concentration scale where inhibition reaches its midpoint.
